In PMC11413854, “Reversible Control of Native GluN2B-Containing NMDA Receptors with Visible Light” (ACS Chemical Neuroscience, 2024):

Tested on: cultured cortical neurons at DIV 14
Test: NMDA excitotoxicity test, neuronal survival by MTT
Type: cell-based, mouse
Details: for neuronal survival: 5 µM inhibitor + 100 µM NMDA + 10 µM glycine; for % of survival, Mean: compound 5µM with NMDA 100µM, MTT A(540 nm) normalized to control (100) and NMDA alone (0)
Description: We first investigated whether OptoNAM-3 could be used in the context of a patho-physiological process related to GluN1/GluN2B receptors. Overactivation of NMDARs induced by tonic exposure to glutamate or NMDA is well-known to trigger neuronal death.[6] GluN1/GluN2B receptors are thought to be the major player of this neurotoxicity, and GluN1/GluN2B antagonists have proven to be potent neuroprotectants in vitro and in vivo.[5],[15] To test the neuroprotective activity of OptoNAM-3 and its photodependence of action, we performed a protocol of excitotoxicity based on exposure to NMDA (100 μM) of cultured cortical neurons at DIV 14,[15] in the presence of OptoNAM-3. […] OptoNAM-3 in the dark, at a concentration of 5 μM, induced, like ifenprodil, an ∼50% increase in cell survival (Figure S4). […] OptoNAM-3 is therefore able to promote cell survival in neuron cultures in a photodependent manner.
Mice were housed in the IBENS rodent central facility duly accredited by the French Ministry of Agriculture. All experiments were performed in compliance with French and European regulations on care and protection of laboratory animals (EU Directive 2010/63, French Law 2013–118, February 6, 2013), and were approved by local ethics committees and by the French Ministry of Research and Innovation (authorization numbers #05137.02, APAFIS #28867-2020121814485893). Dissociated cultures of cortical neurons were prepared from mouse embryos at E18 as described previously.[84] After removing meninges, cortices were placed in ice-cold HBSS solution. Cell dissociation was performed individually for cortices of each embryo. Cortices were incubated in 2.5% trypsin at 37 °C for 7 min, rinsed three times with 37 °C phosphate buffer saline, and finally suspended in plating medium (Neurobasal Medium, supplemented with 0.5 mM L-glutamine, 1% B27 supplement, and penicillin/streptomycin). The neurons were further dissociated by trituration, and cells were plated on poly-D-lysine coated coverslips in 24-well culture dishes at a density of 3 × 10^5 cells per well for the excitotoxicity test and that of 1 × 10^5 cells per well for patch clamp experiments. Cultures were incubated at 37 °C in a humidified atmosphere of 5% CO2. Cells were fed by changing 1/2 medium to fresh Neurobasal medium every 4 days. For the excitotoxicity experiments, after 5 days in vitro, growth of non-neuronal cells was halted by a 24 h exposure to FDX ([…] 5-fluoro-2′-deoxyuridine). The cultures were used for experiments after 6 to 14 days in vitro (DIV6–8 for patch clamp experiments and DIV14 for excitotoxicity tests).
Excitotoxicity tests were performed 14 days after the culturing step as described in ref[15]. Just before the experiments, the neuronal medium was changed and the neurons incubated in the external patch recording solution (see above). Two replicates of 24 well plates containing cultured cortical neurons were exposed to the same 4 conditions, in which the following compounds were added to the medium: (1) glycine (10 μM) alone (control); (2) glycine (10 μM) + NMDA (100 μM); (3) glycine (10 μM) + NMDA (100 μM) + 5 μM ifenprodil; and (4) glycine (10 μM) + NMDA (100 μM) + 5 μM trans-OptoNAM-3 (dark). One of the two plates was exposed to UV light (Jena analytic US, UVP Hand-held UV lamp UVGL-58, power ∼1 mW) for 2 min. The two plates were then put back in the 37 °C incubator for 10 min. Agonist exposure was terminated by washing out the exposure solution with conditioned Neurobasal medium, prior to returning the dishes to the incubator for 24 h before assessment of neuronal death.
Overall neuronal cell death was determined 24 h after NMDA exposure by the MTT test. Mitochondrial and cytosolic dehydrogenases of living cells reduce the yellow tetrazolium salt (MTT) to produce a purple formazan dye that can be detected spectrophotometrically.[85] […]

## c1ccc(/N=N/c2ccc(CCNc3ccncc3)cc2)cc1 [OptoNAM-3, (E)-N-(4-(Phenyldiazenyl)phenethyl)pyridin-4-amine]
2 min UV (365 nm), normalized to control and NMDA
  neuronal survival: 35%
dark, normalized to control (100%) and NMDA (0%)
  neuronal survival: 50%
Dark
  % of survival, Mean: 48.677%
UV
  % of survival, Mean: 36.192%
